Data published in ChEMBL document CHEMBL4715922, “Methionine Adenosyltransferase Inhibitors for the Treatment of Cancer” (ACS Med Chem Lett, 2021).

Tests used:
[1] = target: T1, S-adenosylmethionine synthase isoform type-2 (Homo sapiens, UniProt P31153); experiment: Inhibition of recombinant human MAT2A expressed in baculovirus infected Sf9 cells using L-methionine as substrate incubated for 60 mins followed by substrate addition and measured after 60 mins by S-adenosyl methionine assay kit method
T1 sequence (P31153 whole entry, canonical isoform): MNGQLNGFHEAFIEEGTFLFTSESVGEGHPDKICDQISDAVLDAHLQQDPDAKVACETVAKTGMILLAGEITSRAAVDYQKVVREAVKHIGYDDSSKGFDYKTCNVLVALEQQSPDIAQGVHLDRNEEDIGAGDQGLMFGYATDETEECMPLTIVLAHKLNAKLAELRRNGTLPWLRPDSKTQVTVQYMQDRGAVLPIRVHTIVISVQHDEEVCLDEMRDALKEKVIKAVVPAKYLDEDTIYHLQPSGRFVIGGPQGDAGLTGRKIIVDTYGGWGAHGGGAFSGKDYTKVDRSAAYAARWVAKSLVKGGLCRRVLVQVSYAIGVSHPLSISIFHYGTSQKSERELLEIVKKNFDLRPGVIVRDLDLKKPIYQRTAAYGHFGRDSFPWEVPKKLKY

[2] = test system: HCT-116; experiment: Antiproliferative activity against human HCT-116 cells harboring wild type […] assessed as reduction in cell growth incubated for 4 days by Cell Titer-Glo assay; assay type: functional, cell-based; details: HCT-116, 96 h
[3] = test system: HCT-116; experiment: Antiproliferative activity against isogenic pair of human HCT-116 cells harboring […] del mutant assessed as reduction in cell growth incubated for 4 days by Cell Titer-Glo assay; assay type: cell-based; details: HCT-116, 96 h
[4] = target: T1, S-adenosylmethionine synthase isoform type-2; experiment: Inhibition of MAT2A in human HCT-116 cells assessed as reduction in SAM incubated for 72 hrs by LC-MS/MS analysis; assay type: cell-based

Structure (SMILES)	IC50 [1] [nM]	IC50 [2] [nM]	IC50 [3] [nM]	IC50 [4] [nM]
COc1ccc(-c2c(=O)n(-c3ccc4nn(C)cc4c3)nc3ccc(OCC(F)F)nc23)cn1	< 100	≥ 100	< 100	< 100
O=c1c(-c2ccc(OC(F)F)cc2)c2nc(OCC(F)F)ccc2nn1-c1ccc2ncsc2c1	< 100	< 100	< 100	< 100
Cn1cc2cc(-n3nc4ccc(OCCC(F)(F)F)nc4c(-c4ccc(OC(F)F)cc4)c3=O)ccc2n1	< 100	≥ 1000	≥ 100	≥ 100
Cn1cc2cc(-n3nc4ccc(OCC(F)(F)F)nc4c(-c4ccc(OC(F)F)cc4)c3=O)ccc2n1	< 100	≥ 100	< 100	< 100
[2H]C([2H])([2H])Oc1c2cc(-n3nc4ccc(OCC(F)F)nc4c(-c4ccc(OC(F)F)cc4)c3=O)ccc2nn1C	< 100	≥ 100	< 100	< 100
Cn1cc2cc(-n3nc4ccc(SCC(F)(F)F)nc4c(-c4ccc(OC(F)F)cc4)c3=O)ccc2n1	< 100	≥ 100	< 100	< 100
CCOc1ccc2nn(-c3ccc4nn(C)cc4c3)c(=O)c(-c3ccc(OC)cc3)c2n1	< 100	≥ 100	< 100	< 100

Continued, values first:

IC50 [1] [nM]	IC50 [2] [nM]	IC50 [3] [nM]	IC50 [4] [nM]	Structure (SMILES)
< 100	≥ 100	< 100	< 100	O=c1c(-c2ccc(OC(F)F)cc2)c2nc(OCC(F)F)ccc2nn1-c1ccc2c(c1)CCO2
< 100	≥ 100	< 100	< 100	Cn1cc2cc(-n3nc4ccc(OCC(F)F)nc4c(-c4ccc(OC(F)F)cc4)c3=O)ccc2n1
< 100	≥ 100	< 100	< 100	Cn1cc2cc(-n3nc4ccc(OCC(F)(F)F)nc4c(-c4ccc(Cl)cc4)c3=O)ccc2n1
